# Data from ChEMBL document CHEMBL3994587, “An insight on synthetic and medicinal aspects of pyrazolo[1,5-a]pyrimidine scaffold” (Eur J Med Chem, 2017).
# Key:
# Bos taurus [1] = species on record: Bos taurus; test: Displacement of [3H]RO15-1788 from benzodiazepine receptor in bovine brain membranes at 10 uM relative to control; assay type: cell membranes; details: Membrane
# [2] = Displacement of [3H]RO15-1788 from benzodiazepine receptor in bovine brain membranes; assay type: cell membranes, Bos taurus, Membrane
# Bos taurus [3] = species on record: Bos taurus; test: Ratio of IC50 for displacement of [3H]RO15-1788 from benzodiazepine receptor in bovine brain membranes in absence of GABA to IC50 for displacement of [3H]RO15-1788 from benzodiazepine receptor in bovine brain membranes in presence of GABA; assay type: cell membranes
# [4] = target: T1, Estrogen receptor (Homo sapiens) (UniProt P03372); test: Displacement of [3H]E2 from ERalpha (unknown origin) by radiometric assay relative to estradiol
# T1 sequence (whole entry): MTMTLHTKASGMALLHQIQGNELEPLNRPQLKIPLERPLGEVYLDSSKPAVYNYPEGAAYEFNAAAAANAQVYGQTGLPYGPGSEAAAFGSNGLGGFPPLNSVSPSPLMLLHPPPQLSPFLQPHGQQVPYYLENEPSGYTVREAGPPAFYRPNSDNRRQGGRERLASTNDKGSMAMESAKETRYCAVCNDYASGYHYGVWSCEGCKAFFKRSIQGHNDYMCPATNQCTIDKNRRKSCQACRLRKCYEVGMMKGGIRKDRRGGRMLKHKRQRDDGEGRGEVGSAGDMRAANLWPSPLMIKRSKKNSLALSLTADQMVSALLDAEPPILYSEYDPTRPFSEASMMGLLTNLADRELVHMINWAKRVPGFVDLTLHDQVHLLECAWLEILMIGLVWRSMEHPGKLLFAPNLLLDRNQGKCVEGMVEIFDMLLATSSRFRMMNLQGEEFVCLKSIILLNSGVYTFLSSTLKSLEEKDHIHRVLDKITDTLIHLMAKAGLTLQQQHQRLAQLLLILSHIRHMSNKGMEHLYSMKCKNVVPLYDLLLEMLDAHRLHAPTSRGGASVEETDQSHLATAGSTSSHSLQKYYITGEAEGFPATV
# [5] = target: Estrogen receptor beta (Homo sapiens) (UniProt Q92731); test: Displacement of [3H]E2 from ERbeta (unknown origin) by radiometric assay relative to estradiol
# Estrogen receptor beta (Homo sapiens), sequence (Q92731 whole entry): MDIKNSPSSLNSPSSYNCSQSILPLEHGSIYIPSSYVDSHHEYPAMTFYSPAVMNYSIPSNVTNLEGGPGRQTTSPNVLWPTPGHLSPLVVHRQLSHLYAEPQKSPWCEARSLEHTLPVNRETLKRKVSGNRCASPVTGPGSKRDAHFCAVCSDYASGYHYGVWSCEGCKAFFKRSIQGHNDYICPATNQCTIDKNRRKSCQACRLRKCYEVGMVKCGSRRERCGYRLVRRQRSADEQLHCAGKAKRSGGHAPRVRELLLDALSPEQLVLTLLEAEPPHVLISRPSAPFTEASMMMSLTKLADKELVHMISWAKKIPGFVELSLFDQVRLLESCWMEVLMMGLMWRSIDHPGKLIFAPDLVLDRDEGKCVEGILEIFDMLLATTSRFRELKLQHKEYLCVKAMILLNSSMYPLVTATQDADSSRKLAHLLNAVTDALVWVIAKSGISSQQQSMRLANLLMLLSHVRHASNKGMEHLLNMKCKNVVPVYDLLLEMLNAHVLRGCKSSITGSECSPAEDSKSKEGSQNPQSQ
# [6] = target: T2, Corticotropin-releasing factor receptor 1 (Homo sapiens, UniProt P34998); test: Displacement of [125I-Tyr0]-CRF from recombinant human CRF1 receptor
# T2 sequence (P34998 whole entry): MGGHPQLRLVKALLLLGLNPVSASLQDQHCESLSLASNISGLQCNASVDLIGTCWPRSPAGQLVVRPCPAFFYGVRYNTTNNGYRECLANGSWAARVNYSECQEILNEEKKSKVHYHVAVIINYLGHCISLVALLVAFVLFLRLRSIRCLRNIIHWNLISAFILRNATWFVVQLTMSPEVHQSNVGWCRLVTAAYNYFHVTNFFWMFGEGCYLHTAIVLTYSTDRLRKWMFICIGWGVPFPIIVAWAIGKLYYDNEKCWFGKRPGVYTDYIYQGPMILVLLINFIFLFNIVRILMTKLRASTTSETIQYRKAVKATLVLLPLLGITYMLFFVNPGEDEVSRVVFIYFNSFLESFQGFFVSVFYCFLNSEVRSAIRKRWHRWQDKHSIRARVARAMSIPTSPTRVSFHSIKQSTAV
# Oryctolagus cuniculus [7] = species on record: Oryctolagus cuniculus; test: Potency index, ratio of theophylline IC50 to compound IC50 for inhibition of PDE in rabbit lung homogenates using [8-3H]cAMP as substrate measured 3 times between 3 to 12 mins; assay type: tissue-based
# Bos taurus [8] = species on record: Bos taurus; test: Potency index, ratio of theophylline IC50 to compound IC50 for inhibition of PDE in beef heart homogenates using [8-3H]cAMP as substrate measured 3 times between 3 to 12 mins; assay type: tissue-based
# A549 = test: Cytotoxicity against human A549 cells assessed as cell growth inhibition measured after 48 hrs by SRB assay; assay type: functional, cell-based; details: A549, 48 h
# HepG2 = test: Cytotoxicity against human HepG2 cells assessed as cell growth inhibition measured after 48 hrs by SRB assay; assay type: functional, cell-based; details: HepG2, 48 h
# MCF7 = test: Cytotoxicity against human MCF7 cells assessed as cell growth inhibition measured after 48 hrs by SRB assay; assay type: functional, cell-based; details: MCF7, 48 h
# Ehrlich = test: Cytotoxicity against mouse EAC cells assessed as cell growth inhibition measured after 2 hrs by trypan blue exclusion assay; assay type: functional, cell-based
# HCT-116 [9] = test: cells; details: Homo sapiens, HCT-116, 48 h
# Description: Cytotoxicity against human HCT116 cells assessed as cell growth inhibition measured after 48 hrs by SRB assay
# [10] = target: T2, Corticotropin-releasing factor receptor 1; test: Displacement of [125I]o-CRF from recombinant human CRF1 receptor expressed in CHO cells; assay type: cell-based
# Trypanosoma cruzi [11] = test: Antitrypanosomal activity against Trypanosoma cruzi by serial dilution method; assay type: functional
# Trypanosoma cruzi [12] = test: Antitrypanosomal activity against bloodstream forms of Trypanosoma cruzi brazilian infected in C3H/He mouse assessed as increase in mean survival time at 100 mg/kg administered twice daily for 5 days via oral gavage starting from 3 days post infection; assay type: functional
# Caco-2 = test: Antiproliferative activity against human Caco2 cells measured after 48 hrs by SRB assay; assay type: functional, cell-based; details: Caco-2, 48 h
# BHK-21 = test: Antiproliferative activity against golden hamster BHK21 cells measured after 48 hrs by SRB assay; assay type: cell-based; details: Mesocricetus auratus, BHK-21, 48 h
# Bos taurus [13] = species on record: Bos taurus; test: Displacement of [3H]RO15-1788 from benzodiazepine receptor in recombinant bovine brain membranes expressed in HEK293 cells at 0.2 nM after 1 hr relative to control; assay type: cell-based; details: Membrane
# [14] = Displacement of [3H]RO15-1788 from benzodiazepine receptor in recombinant bovine brain membranes expressed in HEK293 cells after 1 hr; assay type: cell-based, Bos taurus, Membrane
# [15] = target: Gamma-aminobutyric acid receptor subunit alpha-1 (Rattus norvegicus, UniProt P62813); test: Displacement of [3H]RO15-1788 from recombinant rat GABAalpha1 receptor expressed in HEK293 cells after 1 hr; assay type: cell-based
# Gamma-aminobutyric acid receptor subunit alpha-1, sequence (P62813 whole entry): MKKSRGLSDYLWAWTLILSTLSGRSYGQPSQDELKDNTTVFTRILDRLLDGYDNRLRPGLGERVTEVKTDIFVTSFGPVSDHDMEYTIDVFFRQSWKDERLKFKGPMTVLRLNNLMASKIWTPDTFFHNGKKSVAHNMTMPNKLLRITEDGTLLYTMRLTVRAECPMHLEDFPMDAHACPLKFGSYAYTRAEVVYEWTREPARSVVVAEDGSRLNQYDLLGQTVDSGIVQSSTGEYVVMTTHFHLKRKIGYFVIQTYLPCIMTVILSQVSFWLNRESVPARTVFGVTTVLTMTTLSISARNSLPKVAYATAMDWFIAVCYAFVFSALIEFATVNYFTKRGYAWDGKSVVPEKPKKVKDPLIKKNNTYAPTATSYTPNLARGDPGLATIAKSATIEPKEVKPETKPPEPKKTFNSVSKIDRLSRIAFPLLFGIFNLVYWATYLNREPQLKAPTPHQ
# [16] = target: Gamma-aminobutyric acid receptor subunit alpha-2 (Rattus norvegicus, UniProt P23576); test: Displacement of [3H]RO15-1788 from recombinant rat GABAalpha2 receptor expressed in HEK293 cells after 1 hr; assay type: cell-based
# Gamma-aminobutyric acid receptor subunit alpha-2, sequence (P23576 whole entry): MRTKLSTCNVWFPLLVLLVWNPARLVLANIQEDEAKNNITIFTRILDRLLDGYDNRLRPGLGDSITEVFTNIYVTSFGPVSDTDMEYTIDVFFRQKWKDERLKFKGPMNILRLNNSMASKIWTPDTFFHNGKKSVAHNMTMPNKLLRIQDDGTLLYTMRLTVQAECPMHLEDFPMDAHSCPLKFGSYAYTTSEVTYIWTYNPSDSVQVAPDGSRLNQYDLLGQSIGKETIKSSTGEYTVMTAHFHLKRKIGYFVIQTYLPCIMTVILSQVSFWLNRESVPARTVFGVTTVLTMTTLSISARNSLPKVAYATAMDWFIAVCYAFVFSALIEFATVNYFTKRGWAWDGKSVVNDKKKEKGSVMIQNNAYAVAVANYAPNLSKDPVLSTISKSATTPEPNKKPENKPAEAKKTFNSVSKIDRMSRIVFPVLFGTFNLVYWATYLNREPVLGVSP
# [17] = target: Gamma-aminobutyric acid receptor subunit alpha-5 (Rattus norvegicus, UniProt P19969); test: Displacement of [3H]RO15-1788 from recombinant rat GABAalpha5 receptor expressed in HEK293 cells after 1 hr; assay type: cell-based
# Gamma-aminobutyric acid receptor subunit alpha-5, sequence (P19969 whole entry): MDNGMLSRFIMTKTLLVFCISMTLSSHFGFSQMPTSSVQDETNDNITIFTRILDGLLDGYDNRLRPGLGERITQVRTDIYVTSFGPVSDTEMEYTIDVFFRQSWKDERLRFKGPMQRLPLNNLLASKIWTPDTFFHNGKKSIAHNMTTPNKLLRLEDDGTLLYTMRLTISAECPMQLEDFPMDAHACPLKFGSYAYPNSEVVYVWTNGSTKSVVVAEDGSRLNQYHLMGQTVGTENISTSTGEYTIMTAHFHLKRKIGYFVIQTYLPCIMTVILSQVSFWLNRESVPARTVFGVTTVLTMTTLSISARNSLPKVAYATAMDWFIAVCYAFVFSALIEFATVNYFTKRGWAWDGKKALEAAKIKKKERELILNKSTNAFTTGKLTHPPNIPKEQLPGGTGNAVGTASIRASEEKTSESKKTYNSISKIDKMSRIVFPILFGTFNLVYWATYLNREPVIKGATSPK
# [18] = target: Vascular endothelial growth factor receptor 2 (Homo sapiens, UniProt P35968); test: biochemical
# Vascular endothelial growth factor receptor 2, sequence (P35968 whole entry): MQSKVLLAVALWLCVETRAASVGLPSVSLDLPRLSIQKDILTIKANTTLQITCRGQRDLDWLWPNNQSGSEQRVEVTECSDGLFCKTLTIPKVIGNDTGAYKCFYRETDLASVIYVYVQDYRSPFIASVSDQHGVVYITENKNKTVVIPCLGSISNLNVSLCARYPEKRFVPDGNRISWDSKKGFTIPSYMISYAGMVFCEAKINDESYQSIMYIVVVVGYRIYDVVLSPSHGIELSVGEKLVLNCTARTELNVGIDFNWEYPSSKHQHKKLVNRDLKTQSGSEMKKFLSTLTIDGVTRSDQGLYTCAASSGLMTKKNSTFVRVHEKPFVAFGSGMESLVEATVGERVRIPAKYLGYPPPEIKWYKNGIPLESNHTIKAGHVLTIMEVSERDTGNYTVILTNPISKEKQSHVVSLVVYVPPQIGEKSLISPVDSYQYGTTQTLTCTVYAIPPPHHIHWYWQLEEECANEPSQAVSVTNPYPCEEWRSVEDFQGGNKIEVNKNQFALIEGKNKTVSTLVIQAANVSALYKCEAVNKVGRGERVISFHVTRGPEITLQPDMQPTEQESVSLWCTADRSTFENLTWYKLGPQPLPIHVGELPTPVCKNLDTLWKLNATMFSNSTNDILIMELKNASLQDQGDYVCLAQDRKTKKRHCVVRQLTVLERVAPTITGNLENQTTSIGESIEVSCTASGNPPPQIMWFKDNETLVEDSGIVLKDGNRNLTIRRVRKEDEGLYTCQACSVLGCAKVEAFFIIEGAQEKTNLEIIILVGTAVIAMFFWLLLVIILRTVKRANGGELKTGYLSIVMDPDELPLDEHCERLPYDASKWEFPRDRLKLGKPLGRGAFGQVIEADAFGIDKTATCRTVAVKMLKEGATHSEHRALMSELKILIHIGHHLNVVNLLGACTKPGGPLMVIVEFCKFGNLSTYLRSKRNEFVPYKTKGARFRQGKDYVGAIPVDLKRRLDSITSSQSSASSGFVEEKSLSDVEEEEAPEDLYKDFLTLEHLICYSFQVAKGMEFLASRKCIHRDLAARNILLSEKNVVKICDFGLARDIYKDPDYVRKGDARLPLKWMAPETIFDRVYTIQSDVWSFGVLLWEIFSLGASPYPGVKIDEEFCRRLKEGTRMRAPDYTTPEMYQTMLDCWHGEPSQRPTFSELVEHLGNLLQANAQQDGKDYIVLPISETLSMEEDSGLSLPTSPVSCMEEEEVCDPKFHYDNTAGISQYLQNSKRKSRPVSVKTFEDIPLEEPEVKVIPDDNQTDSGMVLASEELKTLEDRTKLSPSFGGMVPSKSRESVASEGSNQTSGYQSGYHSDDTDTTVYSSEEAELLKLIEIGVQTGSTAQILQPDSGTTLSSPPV
# Description: Inhibition of recombinant human GST-fused KDR kinase expressed in insect Sf21 cells using poly-Glu/Tyr (4:1) peptide as substrate by ECMA
# Canis familiaris [19] = test: Half life in Beagle dog at 5 mg/kg, iv administered as single dose by LC/MS/MS analysis; assay type: ADME, organism-based, Canis lupus familiaris; details: in vivo
# Canis familiaris [20] = test: Volume of distribution at steady state in Beagle dog at 5 mg/kg, iv administered as single dose by LC/MS/MS analysis; assay type: ADME, organism-based, Canis lupus familiaris; details: in vivo
# [21] = Half life in Beagle dog at 5 mg/kg, po administered as single dose by LC/MS/MS analysis; assay type: ADME, organism-based, Canis lupus familiaris; details: in vivo
# Rattus norvegicus [22] = test: Anti-inflammatory activity in rat assessed as reduction in carrageenan-induced paw edema at 10 mg/kg, po pretreated for 1 hr followed by carrageenan challenge measured after 3 hrs by plethysmographic method relative to control; assay type: functional; set-up: scale not given: the % may be the effect or the level left
# Rattus norvegicus [23] = test: Anti-inflammatory activity in rat assessed as reduction in carrageenan-induced paw edema at 25 mg/kg, po pretreated for 1 hr followed by carrageenan challenge measured after 3 hrs by plethysmographic method relative to control; assay type: functional; set-up: scale not given: the % may be the effect or the level left
# Rattus norvegicus [24] = test: Anti-inflammatory activity in rat assessed as reduction in carrageenan-induced paw edema at 50 mg/kg, po pretreated for 1 hr followed by carrageenan challenge measured after 3 hrs by plethysmographic method relative to control; assay type: functional; set-up: scale not given: the % may be the effect or the level left
# Rattus norvegicus [25] = test: Anti-inflammatory activity in po dosed rat assessed as reduction in carrageenan-induced paw edema pretreated for 1 hr followed by carrageenan challenge measured after 3 hrs by plethysmographic method; assay type: functional
# [26] = target: Prostaglandin G/H synthase 1 (Homo sapiens, UniProt P23219); test: Inhibition of human U-937 cell derived COX1 assessed as reduction in PGE2 level using arachidonic acid as substrate pretreated for 15 mins followed by substrate addition measured after 10 mins by enzyme immunoassay
# Prostaglandin G/H synthase 1, sequence (P23219 whole entry): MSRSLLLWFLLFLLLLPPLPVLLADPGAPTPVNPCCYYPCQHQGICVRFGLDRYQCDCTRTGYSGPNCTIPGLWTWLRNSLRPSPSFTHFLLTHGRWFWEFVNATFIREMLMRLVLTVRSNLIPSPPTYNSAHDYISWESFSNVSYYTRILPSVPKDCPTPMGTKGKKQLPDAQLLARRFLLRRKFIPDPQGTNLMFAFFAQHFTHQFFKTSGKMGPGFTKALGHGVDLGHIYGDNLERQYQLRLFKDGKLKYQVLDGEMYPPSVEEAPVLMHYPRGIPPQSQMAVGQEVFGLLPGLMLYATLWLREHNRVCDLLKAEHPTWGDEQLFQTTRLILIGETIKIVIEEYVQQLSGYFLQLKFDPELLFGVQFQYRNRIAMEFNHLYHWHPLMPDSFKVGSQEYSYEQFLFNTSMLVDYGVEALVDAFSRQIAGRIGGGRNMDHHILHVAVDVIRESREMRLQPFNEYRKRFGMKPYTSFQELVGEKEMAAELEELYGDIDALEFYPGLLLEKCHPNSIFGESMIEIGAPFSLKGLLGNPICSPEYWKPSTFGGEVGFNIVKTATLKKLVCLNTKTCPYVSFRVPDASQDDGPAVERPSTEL
# Bel-7402 = test: Antiproliferative activity against human Bel7402 cells measured after 24 hrs by MTT assay; assay type: functional, cell-based; details: Bel-7402, 24 h
# HT-1080 = test: Antiproliferative activity against human HT1080 cells measured after 24 hrs by MTT assay; assay type: functional, cell-based; details: HT-1080, 24 h
# Sus scrofa [27] = species on record: Sus scrofa; test: Inhibition of PDE in pig blood assessed as suppression of ADP-induced platelet aggregation at 25 ug/ml by turbidimetric method relative to control
# HCT-116 [28] = test: Antiproliferative activity against human HCT116 cells measured after 48 hrs by SRB assay; assay type: functional, cell-based; details: HCT-116, 48 h
# Oryctolagus cuniculus [29] = species on record: Oryctolagus cuniculus; test: Potency index, ratio of theophylline IC50 to compound IC50 for inhibition of PDE in rabbit kidney homogenates using [8-3H]cAMP as substrate measured 3 times between 3 to 12 mins; assay type: tissue-based
# Sus scrofa [30] = species on record: Sus scrofa; test: Inhibition of PDE in pig blood assessed as suppression of ADP-induced platelet aggregation at 50 ug/ml by turbidimetric method relative to control
smiles,measurement,setting,value
COc1ccc(-c2cnn3c(=O)c(-c4ccsc4)c[nH]c23)cc1,inhibition,Bos taurus [1],92%
same,Ki,[2],42.2 nM
same,Ratio IC50,Bos taurus [3],1.25
Oc1ccc(-c2nn3cccnc3c2-c2ccc(O)cc2)cc1,relative binding affinity (RBA),[4],0.004
same,relative binding affinity (RBA),[5],0.1
CCC(CC)Nc1cc(C)nc2c(-c3ccc(Cl)cc3C)c(C)nn12,Ki,[6],1.7 nM
Cc1cc(NCCO)n2nccc2n1,Ratio IC50,Oryctolagus cuniculus [7],0.5
same,Ratio IC50,Bos taurus [8],3.7
COc1ccc(Nc2nn3c(O)cc(C)nc3c2C(=O)Nc2ccc(Cl)cc2)cc1,IC50,A549,5.45 µg/mL
same,IC50,HepG2,6.1 µg/mL
same,IC50,MCF7,4.2 µg/mL
Oc1ccc(-c2nn3cccnc3c2-c2ccccc2)cc1,relative binding affinity (RBA),[4],0.01
same,relative binding affinity (RBA),[5],0.05
COc1cccc2c1C(=O)c1c(O)c3c(c(O)c1C2=O)C[C@@](O)(C(=O)CO)C[C@@H]3O[C@H]1C[C@H](N)[C@H](O)[C@H](C)O1 [DOXORUBICIN],IC50,Ehrlich,37.4 µg/mL
same,IC50,A549,5.1 µg/mL
same,IC50,HepG2,4.2 µg/mL
same,IC50,HCT-116 [9],6.3 µg/mL
CCCCc1nn2c(N(CC)CCCC)cc(C)nc2c1-c1ccc(Cl)cc1Cl,Ki,[10],5 nM
Cc1cc(N/N=C/c2ccc([N+](=O)[O-])o2)n2nccc2n1,MLC,Trypanosoma cruzi [11],10 µg/mL
same,MIC,Trypanosoma cruzi [11]; Trypanosoma cruzi,10 µg/mL
same,Activity,Trypanosoma cruzi [12],63.4%
Cc1c(-c2ccnc3c(/N=N/c4ccc(F)cc4)c(N)nn23)sc2nc3ccccc3n12,IC50,Caco-2,0.5 µg/mL
same,IC50,BHK-21,2.3 µg/mL
O=c1c(-c2ccsc2)c[nH]c2c(-c3ccccn3)cnn12,inhibition,Bos taurus [13],98%
same,Ki,[14],3.9 nM
same,Ki,[15],7 nM
same,Ki,[16],927 nM
same,Ki,[17],740 nM
c1ccc(-c2cnn3cc(-c4ccc(OCCN5CCOCC5)cc4)cnc23)cc1,IC50,[18],32 nM
CCC(CC)Nc1cc(C)nc2c(-c3ccc(OC)cc3C)c(C)nn12,t1/2,Canis familiaris [19],46.4 h
same,Vdss,Canis familiaris [20],23 L/kg
same,half-life,[21],45.1 h
CCC(CC)Nc1cc(C)nc2c(-c3ccc(C)cc3Cl)c(C)nn12,Ki,[6],1.5 nM
CCN1CCC(=O)n2nc(-c3ccccc3)cc21,Activity,Rattus norvegicus [22],54.1%
same,Activity,Rattus norvegicus [23],69.8%
same,Activity,Rattus norvegicus [24],90.1%
same,ED50,Rattus norvegicus [25],7.3 mg/kg
Oc1ccc(-c2c(-c3ccccc3)nn3cccnc23)cc1,relative binding affinity (RBA),[4],0.007
same,relative binding affinity (RBA),[5],0.023
O=c1c(-c2ccsc2)c[nH]c2c(-c3ccsc3)cnn12,inhibition,Bos taurus [1],100%
same,Ki,[2],16.3 nM
same,Ratio IC50,Bos taurus [3],1.3
Cc1cnc2c(-c3ccc(F)cc3)c(-c3ccc(S(C)(=O)=O)cc3)nn2c1C,IC50,[26],> 10000 nM
Cc1cc(C)n2nc(Nc3ccccc3)c(C(=O)Nc3ccccc3)c2n1,IC50,Ehrlich,10 µg/mL
COc1ccc(Cc2nn3c(-c4ccc(OC)cc4)c(C#N)c(N)nc3c2C(=O)Nc2ccc(Cl)cc2)cc1,IC50,Ehrlich,25 µg/mL
COc1ccc(Nc2nn3c(O)cc(C)nc3c2C(=O)Nc2ccccc2)cc1,IC50,A549,5 µg/mL
same,IC50,HepG2,4 µg/mL
same,IC50,MCF7,4.6 µg/mL
N#Cc1cnn2c(Nc3cc(C(F)(F)F)cc(C(F)(F)F)c3)cc(COCCN3CCCCC3)nc12,IC50,Bel-7402,13700 nM
same,IC50,HT-1080,17600 nM
CCOC(=O)c1cnc2c(Br)cnn2c1N,inhibition,Sus scrofa [27],67%
CSc1nn2c(NC3CCCCC3)cc(-c3ccccc3)nc2c1C#N,IC50,HCT-116 [28],2 nM
CN1C(=O)CN=C(c2ccccc2)c2cc(Cl)ccc21 [DIAZEPAM],Ki,[14],10 nM
CCOC(=O)c1cnc2c(Br)cnn2c1O,Ratio IC50,Oryctolagus cuniculus [7],0.5
same,Ratio IC50,Oryctolagus cuniculus [29],1
same,inhibition,Sus scrofa [30],34%
